The values that follow come from ChEMBL document CHEMBL2016464, “Identification of Inhibitors of NOD1-Induced Nuclear Factor-κB Activation” (ACS Med Chem Lett, 2011).

Converted amounts (≈) assume the structure as drawn.

Broadly, the IC50 is the concentration at which inhibition is half-maximal. A low value points to higher potency. One may read the solubility as the dissolved amount per volume that the medium holds. High values mean a readily soluble substance, low ones a poorly soluble substance.

Series [1] deals with HEK-293T. In words: Cytotoxicity against HEK293T cells at 20 uM by alamar blue assay. Format: cell-based. The conditions noted are these: human. Background: The colour change of resazurin is a common sign of viable cells or microbes.
Series [2] can be described thus: cells. The conditions noted are these: Homo sapiens, HEK-293T, 14 h.
Description: Inhibition of TNFalpha-induced NFkappaB activation in HEK293T cells after 14 hrs by luciferase reporter gene assay
In series [3] the target is Nucleotide-binding oligomerization domain-containing protein 2 (Homo sapiens, UniProt Q9HC29).
Chain of Nucleotide-binding oligomerization domain-containing protein 2 (Q9HC29 whole entry, the tested form may be a part): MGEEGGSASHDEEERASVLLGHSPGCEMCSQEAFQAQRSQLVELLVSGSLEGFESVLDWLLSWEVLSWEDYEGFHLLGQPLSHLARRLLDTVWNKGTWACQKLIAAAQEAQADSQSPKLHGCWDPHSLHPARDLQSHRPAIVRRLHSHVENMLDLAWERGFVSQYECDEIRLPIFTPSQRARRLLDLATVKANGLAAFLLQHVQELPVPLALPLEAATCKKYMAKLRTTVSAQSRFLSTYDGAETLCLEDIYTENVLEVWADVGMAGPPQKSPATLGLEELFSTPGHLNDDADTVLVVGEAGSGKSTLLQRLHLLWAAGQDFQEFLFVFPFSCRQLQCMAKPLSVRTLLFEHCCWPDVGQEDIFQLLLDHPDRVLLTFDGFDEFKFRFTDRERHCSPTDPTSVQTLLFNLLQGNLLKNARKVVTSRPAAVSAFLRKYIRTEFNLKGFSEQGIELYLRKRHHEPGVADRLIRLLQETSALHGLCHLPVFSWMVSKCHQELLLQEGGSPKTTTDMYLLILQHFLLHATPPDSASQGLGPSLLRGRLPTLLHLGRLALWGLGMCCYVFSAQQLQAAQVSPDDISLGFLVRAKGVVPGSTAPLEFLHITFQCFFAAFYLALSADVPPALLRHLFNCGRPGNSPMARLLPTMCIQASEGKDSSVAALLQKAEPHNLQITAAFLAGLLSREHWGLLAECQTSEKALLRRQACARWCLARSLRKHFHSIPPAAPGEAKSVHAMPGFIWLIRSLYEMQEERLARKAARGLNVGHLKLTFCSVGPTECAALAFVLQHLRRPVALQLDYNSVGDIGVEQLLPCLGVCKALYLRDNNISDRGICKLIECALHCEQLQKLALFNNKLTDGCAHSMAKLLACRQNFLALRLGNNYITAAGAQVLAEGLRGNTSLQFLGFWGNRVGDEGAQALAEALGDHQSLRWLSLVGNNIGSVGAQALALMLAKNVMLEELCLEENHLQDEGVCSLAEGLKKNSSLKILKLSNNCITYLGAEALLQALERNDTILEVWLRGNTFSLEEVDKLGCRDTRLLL
A short description of series [4]: Solubility of the compound at pH 7.4. The conditions noted are these: buffer. It is filed as physicochemical.

Turning to `CC(=O)c1ccc(N2CCN(S(=O)(=O)c3ccc4c(c3)CCN4C(=O)C3CC3)CC2)cc1`, in series [1], the Activity turned out to be 0%. In series [2], this compound had an IC50 greater than 20 µM.

In the case of `COc1ccc(NC(=O)c2ccc(CN3CCc4ccccc4C3)cc2)cc1`, the Activity in series [1] came to 0%. Moreover, the IC50 in series [3] came to 0.78 µM; in series [2], 0.65 µM.

With `Nc1nc2ccccc2n1CCC(=O)c1ccc(Cl)cc1`, in series [1], the Activity was found to be 0%. The compound also gave an IC50 in series [2] greater than 20 µM.

Regarding `O=C(Nc1ccc(F)cc1)c1ccc(CN2CCc3ccccc32)cc1`, in series [1], the Activity was found to be 0%. Further, in series [2], the IC50 is greater than 20 µM.

Take `CSc1ccc(NC(=O)c2ccc(CN3CCc4ccccc4C3)cc2)cc1`: the Activity in series [1] was 0%. The IC50 in series [3] is 0.26 µM; in series [2], 0.37 µM.

`CC(=O)N1CCc2cc(S(=O)(=O)N3CCN(c4ccc(C#N)cc4)CC3)ccc21` had an Activity in series [1] of 0%. The compound further yielded a solubility in series [4] of 0.1 µg/mL (≈ 0.244 µM). In addition, the IC50 in series [2] worked out at 8.79 µM.

`CC(=O)N1c2ccc(S(=O)(=O)N3CCN(c4ccc([N+](=O)[O-])cc4)CC3)cc2CC1C` (racemic): the Activity in series [1] was 0%. In series [2], this compound registered an IC50 of 3.27 µM.

`CCOc1ccc(NC(=O)c2ccc(CN3CCc4ccccc4C3)cc2)cc1` had an Activity in series [1] of 0%. Further, the IC50 stood at 0.57 µM in series [3] and 2.05 µM in series [2].

In the case of `CN(C)c1ccc(NC(=O)c2ccc(CN3CCc4ccccc4C3)cc2)cc1`, the Activity in series [1] stood at 0%. The IC50 in series [3] came out at 3.58 µM; in series [2] it was 1.83 µM.

`Nc1nc2ccccc2n1S(=O)(=O)c1ccc(Cl)cc1` registered an Activity in series [1] of 0%.

Take `CN(C)c1ccc(NC(=O)c2ccc(CN3CCCCC3)cc2)cc1`: the Activity in series [1] came to 0%. Further, the IC50 in series [2] is greater than 20 µM.

Take `Cc1ccc(NC(=O)c2ccc(CN3CCc4ccccc4C3)cc2)cc1`: the Activity in series [1] amounted to 0%. Moreover, the half-maximal inhibitory concentration (IC50) in series [3] and in series [2] was greater than 20 µM throughout.

On to `CCOc1ccc(NC(=O)c2ccc(CN3CCCCC3)cc2)cc1`, for which the Activity in series [1] came to 0%. Further, the IC50 in series [2] was greater than 20 µM.

`CC(=O)N1CCc2cc(S(=O)(=O)N3CCN(c4ccc(Cl)cc4)CC3)ccc21` gave an Activity in series [1] of 0%. In addition, the 50% inhibitory concentration (IC50) in series [2] was greater than 20 µM.

In turn, `CSc1ccc(NC(=O)c2ccc(CN3CCCCC3)cc2)cc1` registered an Activity in series [1] of 0%. The IC50 in series [2] is greater than 20 µM.

Regarding `Nc1nc2ccccc2n1C(=O)c1ccc(Cl)cc1Cl`, the Activity in series [1] stood at 0%.

On to `CCC(=O)N1c2ccc(S(=O)(=O)N3CCN(c4ccc(Cl)cc4)CC3)cc2CC1C` (racemic), for which the Activity in series [1] was 0%. For the same compound, the concentration in solution in series [4] (solubility) came to 0.1 µg/mL (≈ 0.223 µM). The IC50 amounted to 0.6 µM in series [3] and 0.58 µM in series [2].

In turn, `CCC(=O)N1c2ccc(S(=O)(=O)N3CCN(c4ccc(C(C)=O)cc4)CC3)cc2CC1C` (racemic) gave an Activity in series [1] of 0%. The amount in solution in series [4] (solubility) came to 0.1 µg/mL (≈ 0.22 µM). The half-maximal inhibitory concentration (IC50) stood at 1.58 µM in series [3] and 1.63 µM in series [2].

On to `CCC(=O)N1CCc2cc(S(=O)(=O)N3CCN(c4ccc([N+](=O)[O-])cc4)CC3)ccc21`, for which, in series [1], the Activity is recorded as 0%. In addition, the IC50 in series [2] was greater than 20 µM.

On to `CCC(=O)N1c2ccc(S(=O)(=O)N3CCN(c4ccc([N+](=O)[O-])cc4)CC3)cc2CC1C` (racemic), for which the Activity in series [1] came out at 0%. Besides, the concentration in solution in series [4] (solubility) was 0.1 µg/mL (≈ 0.218 µM). The IC50 came out at 1.55 µM in series [3] and 4.92 µM in series [2].

Compound `CC(=O)c1ccc(N2CCN(S(=O)(=O)c3ccc4c(c3)CCN4C(C)=O)CC2)cc1` showed an Activity in series [1] of 0%. The compound also returned an IC50 in series [2] greater than 20 µM.

As for `COc1ccc(N2CCN(S(=O)(=O)c3ccc4c(c3)CC(C)N4C(C)=O)CC2)cc1` (racemic), the Activity in series [1] was 0%. Also, the solubility in series [4] was found to be 0.1 µg/mL (≈ 0.233 µM). The IC50 in series [3] was 3.29 µM; in series [2] it was 4.3 µM.

`Nc1nc2ccccc2n1C(=O)c1ccc(F)cc1`: the Activity in series [1] is 0%.

As to `O=C(Nc1ccc(F)cc1)c1ccc(CN2CCc3ccccc3C2)cc1`, the Activity in series [1] amounted to 0%. Besides, the IC50 in series [3] came to 1.85 µM; in series [2], 2.88 µM.

Regarding `O=C(Nc1ccc(Cl)cc1)c1ccc(CN2CCc3ccccc3C2)cc1`, in series [1], the Activity was determined as 0%. Further, the IC50 was found to be 3.54 µM in series [3] and 0.49 µM in series [2].

For `CC(=O)N1c2ccc(S(=O)(=O)N3CCN(c4ccc(Cl)cc4)CC3)cc2CC1C` (racemic), the Activity in series [1] turned out to be 0%. Moreover, the solubility in series [4] was determined as 0.1 µg/mL (≈ 0.23 µM). Moreover, the IC50 was 1.75 µM in series [3] and 5.76 µM in series [2].

In series [1], `Cc1ccc(S(=O)(=O)n2c(S)nc3ccc(C)cc32)cc1` displayed an Activity of 0%. In addition, the IC50 in series [2] was greater than 20 µM.

As to `Nc1nc2ccccc2n1Cc1ccc(Cl)cc1`, the Activity in series [1] came to 0%. Besides, the IC50 in series [2] is greater than 20 µM.

In turn, `Nc1nc2ccccc2n1S(=O)(=O)c1ccccc1` displayed an Activity in series [1] of 0%. In series [2], this compound had an IC50 greater than 20 µM.

`N#Cc1ccc(N2CCN(S(=O)(=O)c3ccc4c(c3)CCN4C(=O)C3CC3)CC2)cc1` came in with an Activity in series [1] of 0%. Further, in series [2], the IC50 was greater than 20 µM.

The compound `CC(=O)N1c2ccc(S(=O)(=O)N3CCN(c4ccccc4)CC3)cc2CC1C` (racemic) returned an Activity in series [1] of 0%. In series [4], the solubility came to 0.1 µg/mL (≈ 0.25 µM). For the same compound, the figures for the half-inhibitory concentration (IC50) in series [3] and in series [2] were 8.27 µM and 14.1 µM, respectively.

Consider `O=C(Nc1ccc(Br)cc1)c1ccc(CN2CCc3ccccc3C2)cc1`, for which the Activity in series [1] is recorded as 0%. In addition, the IC50 in series [2] is 1.5 µM.

In turn, `O=C(Nc1ccc(F)cc1)c1ccc(CN2CCCCC2)cc1` had an Activity in series [1] of 0%. In series [2], this compound displayed an IC50 greater than 20 µM.

In turn, `CC1Cc2cc(S(=O)(=O)N3CCN(c4ccc(Cl)cc4)CC3)ccc2N1C(=O)C1CC1` (racemic) had an Activity in series [1] of 0%. This compound had a solubility in series [4] of 0.1 µg/mL (≈ 0.217 µM). The IC50 was found to be 3.63 µM in series [3] and 7.26 µM in series [2].

In turn, `O=C(C1CC1)N1CCc2cc(S(=O)(=O)N3CCN(c4ccc([N+](=O)[O-])cc4)CC3)ccc21` showed an Activity in series [1] of 0%. Besides, the solubility in series [4] worked out at 0.1 µg/mL (≈ 0.219 µM). In addition, the concentration for half-maximal inhibition (IC50) in series [2] was greater than 20 µM.

On to `CCOC(=O)c1ccc(NC(=O)c2ccc(CCN3CCc4ccccc4C3)cc2)cc1`, for which the Activity in series [1] is on record as 0%. For the same compound, the IC50 was greater than 20 µM in series [3] and 10.8 µM in series [2].

The compound `CC(=O)c1ccc(N2CCN(S(=O)(=O)c3ccc4c(c3)CC(C)N4C(C)=O)CC2)cc1` (racemic) had an Activity in series [1] of 0%. The compound also yielded a solubility in series [4] of 0.1 µg/mL (≈ 0.226 µM). Moreover, the 50% inhibitory concentration (IC50) in series [3] is 3.72 µM; in series [2] it was 6 µM.

For `CCC(=O)N1CCc2cc(S(=O)(=O)N3CCN(c4ccc(C#N)cc4)CC3)ccc21`, the Activity in series [1] was determined as 0%. This compound registered an IC50 in series [2] greater than 20 µM.

For the compound `COc1ccc(N2CCN(S(=O)(=O)c3ccc4c(c3)CC(C)N4C(=O)C3CC3)CC2)cc1` (racemic), the Activity in series [1] stood at 0%. The same compound displayed a solubility in series [4] of 0.1 µg/mL (≈ 0.22 µM). The figures for the IC50 in series [3] and in series [2] were 0.39 µM and 3.85 µM, respectively.

In series [1], `Cc1ccc(S(=O)(=O)n2cnc3ccccc32)cc1` registered an Activity of 0%. Further, the IC50 in series [3] and in series [2] was greater than 20 µM in each case.

In the case of `CN(C)c1ccc(NC(=O)c2ccc(CN3CCc4ccccc43)cc2)cc1`, the Activity in series [1] came out at 0%. In series [2], the IC50 was greater than 20 µM.

Regarding `Nc1nc2ccccc2n1S(=O)(=O)c1ccc([N+](=O)[O-])cc1`, the Activity in series [1] was determined as 0%.

Consider `CCOC(=O)c1ccc(NC(=O)c2ccc(CN3CCc4ccccc4C3)cc2)cc1`, for which, in series [1], the Activity turned out to be 0%. For the same compound, the values for the IC50 in series [3] and in series [2] were 0.4 µM and 0.14 µM, respectively.

With `CC(=O)N1CCc2cc(S(=O)(=O)N3CCN(c4ccc([N+](=O)[O-])cc4)CC3)ccc21`, the Activity in series [1] is recorded as 0%. In series [2], the IC50 is greater than 20 µM.

For `Cc1ccc(S(=O)(=O)n2c(N)nc3cc(C)c(C)cc32)cc1`, the Activity in series [1] came out at 0%. Moreover, the IC50 in series [2] was greater than 20 µM.

Turning to `CC1Cc2cc(S(=O)(=O)N3CCN(c4ccc([N+](=O)[O-])cc4)CC3)ccc2N1C(=O)C1CC1` (racemic), in series [1], the Activity is reported as 0%. Besides, in series [4], the solubility is 0.1 µg/mL (≈ 0.213 µM). In addition, the IC50 in series [3] worked out at 0.2 µM; in series [2] it was 0.24 µM.

`Cc1ccc(S(=O)(=O)n2c(C)nc3ccccc32)cc1` returned an Activity in series [1] of 0%.

`CC(=O)N1c2ccc(S(=O)(=O)N3CCN(c4ccc(C)cc4)CC3)cc2CC1C` (racemic) yielded an Activity in series [1] of 0%. Besides, the solubility in series [4] was found to be 0.1 µg/mL (≈ 0.242 µM). The concentration for half-maximal inhibition (IC50) in series [3] worked out at 3.45 µM; in series [2], 4.32 µM.

Take `COc1ccc(S(=O)(=O)n2c(N)nc3ccccc32)cc1`: the Activity in series [1] worked out at 0%.
